From article PMC7725506, “Functional Diversification of SRSF Protein Kinase to Control Ubiquitin-Dependent Neurodevelopmental Signaling” (Developmental Cell, 2020)

Assays:
SRPK1 [1] = target: SRPK1 (Homo sapiens, UniProt Q96SB4); format: biochemical; conditions: in vitro, RNF12 phospho-Ser214 immunoblot quantified; read-out: IC50, inhibition of RNF12 phosphorylation by SRPK1
Experimental: (§1) Cells were lysed, and 1.5 mg of protein immunoprecipitated with 2 μg of SRPK1 or SRPK2 antibodies (BD Biosciences). Immunoprecipitates were then washed with lysis buffer supplemented with 500 mM NaCl and half of the sample was resuspended in loading buffer. The remainder was subjected to in vitro phosphorylation assay containing 0.5 μg RNF12 and 2 mM ATP in kinase buffer (50 mM Tris-HCl [pH 7.5], 0.1 mM EGTA, 10 mM MgCl2, 2 mM DTT) and incubated at 30°C for 30 min. […] For radioactive in vitro kinase assays, reactions were supplemented with 1 μCi γ-^32P ATP. Reactions were incubated at 30°C for 30 min in presence or absence of inhibitor as indicated and samples subjected to polyacrylamide electrophoresis and immunoblot or Coomassie blue staining and signal detected via ECL, infrared detection or autoradiography.
(§2) Supplemental Figure Legends
(§3) (Related to Figure 1). (A) Wild-type (WT) mESCs were analysed for protein copy number by absolute quantitative proteomics. […]
(§4) Data are represented as mean ± S.E.M. (n=3). […] ND = not detected. (B) Inhibition of RNF12 phosphorylation in vitro by SRPK1 and SRPK2 in the presence of varying concentrations of the indicated SRPK inhibitors was determined by immunoblotting for RNF12 phospho-Ser214 (Left). […] Immunoblots were quantified to generate SRPK inhibitor dose-response curves for inhibition of RNF12 phosphorylation by SRPK1 and SRPK2 in vitro (Right). […]

SRPK2 [2] = target: SRPK2 (Homo sapiens, UniProt P78362); assay: Inhibition of RNF12 phosphorylation in vitro by SRPK2 (phospho-Ser214 immunoblot, dose-response); format: biochemical; conditions: only this inhibitor of SRPIN340, SPHINX31, SRPKIN-1
Sequence of SRPK2 (Homo sapiens, UniProt P78362) (P78362 1-699 isoform P78362-2): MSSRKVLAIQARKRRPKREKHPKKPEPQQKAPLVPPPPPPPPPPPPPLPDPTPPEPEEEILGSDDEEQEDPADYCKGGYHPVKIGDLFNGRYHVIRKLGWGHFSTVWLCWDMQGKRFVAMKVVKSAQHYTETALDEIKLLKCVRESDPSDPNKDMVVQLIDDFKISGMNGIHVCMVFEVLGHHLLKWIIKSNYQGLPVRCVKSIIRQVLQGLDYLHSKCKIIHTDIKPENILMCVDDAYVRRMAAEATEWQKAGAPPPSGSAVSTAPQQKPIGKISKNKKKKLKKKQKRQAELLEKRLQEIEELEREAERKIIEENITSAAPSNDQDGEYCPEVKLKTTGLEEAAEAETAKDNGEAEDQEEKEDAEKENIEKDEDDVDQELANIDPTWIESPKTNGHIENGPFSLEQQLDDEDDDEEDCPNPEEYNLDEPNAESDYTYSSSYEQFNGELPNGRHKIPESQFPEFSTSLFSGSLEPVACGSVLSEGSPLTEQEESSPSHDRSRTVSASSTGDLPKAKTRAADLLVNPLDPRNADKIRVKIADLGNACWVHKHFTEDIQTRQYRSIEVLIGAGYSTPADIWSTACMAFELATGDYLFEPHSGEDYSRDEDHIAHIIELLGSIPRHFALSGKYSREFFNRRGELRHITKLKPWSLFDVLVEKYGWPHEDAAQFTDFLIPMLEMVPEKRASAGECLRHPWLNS
Experimental: as §1, §2, §3, §4

SRPK1 [3] = target: T1, SRPK1 (Mus musculus, UniProt O70551); assay: SRPK1 immunoprecipitation kinase assay from inhibitor-treated mESCs with RNF12 as substrate; format: cell-based; conditions: mESCs pre-treated with 10 μM for 4 h
T1 construct: endogenous in cells; host or cells: mESCs (CCE line)
T1 sequence (O70551 whole entry): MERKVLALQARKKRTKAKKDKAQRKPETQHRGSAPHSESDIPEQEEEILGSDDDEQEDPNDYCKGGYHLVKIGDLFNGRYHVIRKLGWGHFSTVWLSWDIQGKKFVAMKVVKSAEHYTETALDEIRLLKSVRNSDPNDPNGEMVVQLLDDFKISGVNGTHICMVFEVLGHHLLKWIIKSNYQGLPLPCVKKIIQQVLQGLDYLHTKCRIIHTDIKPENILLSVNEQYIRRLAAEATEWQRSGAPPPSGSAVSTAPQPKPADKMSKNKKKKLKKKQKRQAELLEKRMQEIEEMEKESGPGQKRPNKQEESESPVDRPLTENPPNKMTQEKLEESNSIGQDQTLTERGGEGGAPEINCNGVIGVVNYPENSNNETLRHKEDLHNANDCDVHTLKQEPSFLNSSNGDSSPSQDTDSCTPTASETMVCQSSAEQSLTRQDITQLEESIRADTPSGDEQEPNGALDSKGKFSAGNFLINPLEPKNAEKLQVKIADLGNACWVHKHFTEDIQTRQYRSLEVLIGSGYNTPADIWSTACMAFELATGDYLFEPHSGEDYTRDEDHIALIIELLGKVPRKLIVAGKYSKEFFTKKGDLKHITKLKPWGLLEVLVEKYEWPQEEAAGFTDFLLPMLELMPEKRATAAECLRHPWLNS
Experimental: (§5) SRSF phosphorylation, SRPK1, SRPK2, and ERK1/2 levels were determined by immunoblotting. Expected positions of SRSFs that are not detected are shown in gray. Quantification of SRSF phosphorylation (Right). Data represented as mean ± SEM (n = 4). […] Neuro 2a is a control for exon 16b exclusion in differentiated cells (Bottom). Data represented as mean ± SEM (n = 3). […] Exon 16 inclusion: (^∗∗∗∗) p < 0.0001, Exon 16b inclusion: (^∗) p = 0.0164, p = 0.0485, and p = 0.0489 (left to right). Ratio exon 16b/16: (^∗∗∗∗) p < 0.0001, (^∗∗∗) p = 0.0003. (C) SRPK substrates predicted using ScanProsite and grouped according to UniProt functions. (D) RNF12 phosphorylation sites detected by mass-spectrometry. LZL, leucine-zipper like; NLS, nuclear localization signal; NES, nuclear export signal; RING, RING E3 ubiquitin ligase catalytic domain. (E) CMGC family kinase copy numbers in mESCs determined by quantitative proteomics and represented using Kinoviewer. (F) CMGC kinase (200 mU) phosphorylation of the RNF12 SR-motif in vitro was determined by immunoblotting for RNF12 phospho-Ser214 and total RNF12. […] Normalized RNF12 Ser214 phosphorylation is shown below. Data represented as mean ± SEM (n = 3). […] RNF12 SR-motif phosphorylation was analyzed by immunoblotting for RNF12 phospho-Ser214 and RNF12. SRPK1 and SRPK2 levels are shown as a loading control, Related to Figure S1; Tables S1 and S2. […]

SRPK2 [4] = target: T2, SRPK2 (Mus musculus, UniProt O54781); assay: SRPK2 immunoprecipitation kinase assay from inhibitor-treated mESCs with RNF12 as substrate; format: cell-based; conditions: mESCs pre-treated with 10 μM for 4 h
T2 construct: endogenous in cells; host or cells: mESCs (CCE line)
T2 sequence (O54781 whole entry): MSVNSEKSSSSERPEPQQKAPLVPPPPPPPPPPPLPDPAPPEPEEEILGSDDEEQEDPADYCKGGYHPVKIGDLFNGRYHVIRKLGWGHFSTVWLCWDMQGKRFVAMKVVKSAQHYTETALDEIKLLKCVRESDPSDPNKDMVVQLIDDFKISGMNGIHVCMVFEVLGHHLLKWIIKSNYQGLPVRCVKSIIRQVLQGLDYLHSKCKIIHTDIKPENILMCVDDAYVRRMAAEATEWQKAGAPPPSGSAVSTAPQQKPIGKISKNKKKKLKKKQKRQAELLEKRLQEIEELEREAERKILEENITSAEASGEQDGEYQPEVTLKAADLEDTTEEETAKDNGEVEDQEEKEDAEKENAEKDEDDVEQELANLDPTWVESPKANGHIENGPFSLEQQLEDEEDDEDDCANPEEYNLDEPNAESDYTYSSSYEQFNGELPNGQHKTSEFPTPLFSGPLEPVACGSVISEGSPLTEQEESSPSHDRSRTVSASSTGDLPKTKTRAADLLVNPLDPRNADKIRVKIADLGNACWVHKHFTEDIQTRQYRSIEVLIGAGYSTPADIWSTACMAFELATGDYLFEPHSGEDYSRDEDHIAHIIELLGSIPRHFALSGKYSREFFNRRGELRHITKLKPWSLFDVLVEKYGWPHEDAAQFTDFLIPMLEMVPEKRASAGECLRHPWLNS
Experimental: as §5

RNF12 SR-motif = RNF12 SR-motif phosphorylation in mESCs by phos-tag immunoblotting; format: cell-based, mouse; conditions: 4 h
From the text: RNF12 4xSA = S212A/S214A/S227A/S229A. (B) Rlim^−^/y mESCs were transfected with the indicated RNF12 constructs and lysates treated with λ-phosphatase and analyzed by phos-tag immunoblotting for RNF12. Unphosphorylated recombinant RNF12 is included as a control. […] RNF12 4xSA is included as an unphosphorylated control. […] (F) Phosphorylated peptides detected by mass spectrometry following in vitro phosphorylation of RNF12 by SRPK1. pS, phospho-serine. (G) Autoradiography of RNF12 WT or S212A/S214A/S227A/S229A (4xSA) following a radioactive kinase reaction with SRPK1, SRPK2, or SRPK3. RNF12 protein is detected by Coomassie staining. (H) Srpk1^+/+ and Srpk1^−/− mESCs were transfected with control or SRPK2 siRNA and RNF12 SR-motif phosphorylation analyzed by phos-tag immunoblotting for RNF12. SRPK2, SRPK1, RNF12, and ERK1/2 levels were determined by immunoblotting. Related to Figure S2; Tables S3 and S4.
All compounds were diluted in DMSO and mESCs treated with 10 μM inhibitor for 4 h prior lysis unless indicated otherwise. […] For proteasome inhibition mESCs were treated with 10 μM MG132 (Sigma Aldrich) for 6 h. All chemicals are listed in the Key Resource Table.
Phos-tag analyses were performed by loading protein samples containing 10 mM MnCl2 in 8% polyacrylamide gels containing 50 μM Phos-tag reagent (MRC-PPU reagents and services) and 0.1 mM MnCl2. After electrophoresis, gels were washed three times for 10 mins in Transfer buffer (48 mM Tris, 39 mM Glycine, 20% Methanol) supplemented with 20 mM EDTA. Proteins were then transferred to Nitrocellulose membranes, blocked and probed with the indicated antibodies. All protein signals were quantified using Image Studio (LI-COR Biosciences) or Image Lab software (Bio-Rad). Primary antibodies are listed in the Key Resource Table. […]
SR-motif phosphorylation of HA-immunoprecipitated RNF12 analysed by phos-tag immunoblotting.
HA-RNF12 levels are shown as a control. Fully phosphorylated (4-P) and unphosphorylated (0-P) RNF12 SR-motif is indicated by open (○) and closed (●) circles respectively.
Data are represented as mean ± S.D. (n=3). (C) RNF12 expressing mESCs were treated with 10 […]
immunoblotting. HA-RNF12 and ERK1/2 levels are shown as a control. (D) RNF12 expressing […]
5 h (+ wash-out). RNF12 phosphorylation was analysed via phos-tag immunoblotting. ERK1/2 levels are shown as a loading control. (E) Multiple Srpk1-/- and Srpk2-/- mESC clones were […]

Sequence of SRPK1 (Homo sapiens, UniProt Q96SB4) (Q96SB4 whole entry): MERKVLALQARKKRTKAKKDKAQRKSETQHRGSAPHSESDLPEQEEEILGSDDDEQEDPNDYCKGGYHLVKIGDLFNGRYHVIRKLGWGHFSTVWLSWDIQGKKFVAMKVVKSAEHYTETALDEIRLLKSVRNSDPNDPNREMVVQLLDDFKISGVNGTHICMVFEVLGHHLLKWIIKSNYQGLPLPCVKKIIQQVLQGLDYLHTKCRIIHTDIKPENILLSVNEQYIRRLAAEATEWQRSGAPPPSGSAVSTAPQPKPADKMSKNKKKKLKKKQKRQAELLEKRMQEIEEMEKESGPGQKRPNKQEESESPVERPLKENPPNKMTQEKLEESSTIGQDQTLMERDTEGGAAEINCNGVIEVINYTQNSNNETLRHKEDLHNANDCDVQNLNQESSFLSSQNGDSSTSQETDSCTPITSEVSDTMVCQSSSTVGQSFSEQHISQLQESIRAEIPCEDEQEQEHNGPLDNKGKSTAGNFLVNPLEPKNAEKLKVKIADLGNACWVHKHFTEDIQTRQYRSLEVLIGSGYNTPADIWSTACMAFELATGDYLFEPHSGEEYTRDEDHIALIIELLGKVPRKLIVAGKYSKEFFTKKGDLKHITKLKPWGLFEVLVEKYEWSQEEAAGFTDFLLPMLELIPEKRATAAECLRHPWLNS

## CCc1cc2c(cc1-c1cccc(S(=O)(=O)F)c1)C(C)(C)c1[nH]c3cc(C#N)ccc3c1C2=O [SRPKIN-1]
SRPK1 [1]
  IC50: 15.2 nM
SRPK2 [2]
  inhibition of SRPK2: potently inhibited
SRPK1 [3]
  inhibition of SRPK1 in vivo (ability of immunoprecipitates to phosphorylate RNF12): potently inhibited
SRPK2 [4]
  inhibition of SRPK2 in vivo (ability of immunoprecipitates to phosphorylate RNF12): potently inhibited
RNF12 SR-motif; 10 μM, HA-RNF12 immunoprecipitates, phos-tag and phospho-Ser214 multiplex immunoblot
  Ser214 phosphorylation of the high-mobility form of RNF12: completely dephosphorylated
RNF12 SR-motif
  concentration leading to RNF12 SR-motif de-phosphorylation (as low as): 1 µM
